Measurements reported in US6355616B1, “Derivative compounds derived from or based on bactericidal/permeability-increasing protein” (priority 1999, dated 2002).
Non-standard residues stand in square brackets, D forms with d. Residues, ends and D or L forms follow the SMILES beside them. Aun = NCCCCCCCCCCC(=O)O

B1: BPI: protein isolated from the granules of mammalian polymorphonuclear leukocytes (protein, UniProt P17213 32-487, looked up)
Bactericidal …: VNPGVVVRISQKGLDYASQQGTAALQKELKRIKIPDYSDSFKIKHLGKGHYSFYSMDIREFQLPSSQISMVPNVGLKFSISNANIKISGKWKAQKRFLKMSGNFDLSIEGMSISADLKLGSNPTSGKPTITCSSCSSHINSVHVHISKSKVGWLIQLFHKKIESALRNKMNSQVCEKVTNSVSSELQPYFQTLPVMTKIDSVAGINYGLVAPPATTAETLDVQMKGEFYSENHHNPPPFAPPVMEFPAAHDRMVYLGLSDYFFNTAGLVYQEAGVLKMTLRDDMIPKESKFRLTTKFFGTFLPEVAKKFPNMKIQIHVSASTPPHLSVQPTGLTFYPAVDVQAFAVLPNSSLASLFLIGMHTTGSMEVSAESNRLVGELKLDRLLLELKHSNIGPFPVELLQDIMNYIVPILVLPRVNEKLQKGFPLPTPARVQLYNVVLQPHQNFLLFGADVVYK

Legend:
Candida albicans SLU-1 = test: Radial diffusion assay; assay type: cell-based; settings: 30 mm^2 area of growth inhibition, calculated by PROBIT analysis
Experimental: In the radial diffusion assay procedures, the CA-1 cultures and derivatized peptide solutions were prepared as in the broth microdilution assay procedure described above, i.e., CA-1 was grown to exponential phase in SDB. Ten (10) mL of molten underlayer agarose comprising 3% Sabouraud Dextrose broth, 1% agarose (Pharmacia, Piscataway, N.J.), 0.02% Tween 20, and 10 mM sodium phosphate at pH 7.4, was added to polystyrene tubes and maintained in a 56° C. water bath until the addition of yeast. Tubes were cooled to approximately 45° C., yeast were added to give a final concentration of 1×10^6 CFU/mL, and the tubes were mixed again by inverting. The contents were poured into leveled, square petri dishes and distributed evenly. […] A series of wells were punched into the hardened agarose using a sterile 3 mm punch attached to a vacuum apparatus to achieve a uniform, 3 mm diameter well.
Derivatized peptide sequences to be assayed were 2-fold serially diluted in 10 mM Dulbecco's PBS (D-PBS) starting from a concentration of approximately […]. Five μL of each dilution were added to each well and the plates were incubated at 37° C. for 3 hours to allow for complete diffusion of the test compounds. An overlayer of 10 mL of molten agarose comprising 6% Sabouraud Dextrose broth, 1% agarose, and 10 mM sodium phosphate, pH 7.4, (at approximately 45° C.) was then added and plates were incubated overnight at 37° C. Following this overnight incubation, a dilute Coomassie solution was poured into the plates and allowed to stain for 24 hours to enhance visualization of the zones.
Clear zones of growth inhibition around each well were measured with calipers. The actual area of growth inhibition (mm^2) was calculated by subtracting the area of the well. Table II below sets out the results of the radial diffusion assays for a series of tested peptide-based constructs in terms of the number of picomoles (pmol) of compound required to establish a 30 mm^2 area of growth inhibition of Candida albicans SLU-1 calculated by PROBIT analysis (e.g., calculated from regression of the linear portion of log-concentration dose-response curve, log pmol/well vs. net area of inhibition).

[1] = system: Candida albicans designated CA-1, Strain SLU-1; assay type: cell-based; settings: designated CA-1, Strain SLU-1, 24 h
Experimental: In each broth microdilution assay screening procedure, a colony of Candida albicans designated CA-1, Strain SLU-1 that was received from the laboratories of G. Matuschak and A. Lechner, St. Louis University Hospital, St. Louis, Mo., where the strain was maintained, was inoculated into a tube containing 5 mL Sabouraud Dextrose broth (2% dextrose, 1% neopeptone) and incubated at 37° C. with shaking. The overnight culture was diluted 1:50 into 5 ml of fresh broth and incubated for 3 hours at 37° C. to exponential phase growth. Organisms were pelleted by centrifugation in a Beckman J-6M centrifuge for 5 minutes at 3000 rpm (1500×g) and the pellets were resuspended in 5 mL phosphate buffered saline (PBS) and the optical density (OD) at 570 nm was determined. On the basis of the determination that one OD unit equals 3×10^7 colony forming units/mL (CFU/mL), yeast cells were diluted to 5×10^3 CFU/mL in Sabouraud Dextrose broth (SBD).
Derivatized peptide sequences based on Domain III of BPI to be screened which were originally constituted in Dulbecco's-PBS, were two-fold serially diluted in SDB starting from a concentration of 128 μg/mL. Equal volumes (100 μL) of yeast suspension as prepared above and derivatized peptide solution were added to wells of a 96-well sterile, flat bottom, non-pyrogenic tissue culture microtiter plate (Costar, Cambridge, Mass.) to reach a final volume of 200 μL/well. The plate was incubated on a shaker at 37° C. for 24 hours. All assays were performed in triplicate. Following the incubation period, plates were read in an ELISA plate reader at 595 nm wavelength to determine the minimum inhibitory concentration (MIC), i.e., the lowest concentration required to reduce the optical density at 595 nm to below 0.1 OD.

Candida albicans, SLU-1 = test: 28-day comparative survival efficacy study in mice systemically infected with Candida albicans; assay type: in vivo, male DBA/2 mice; settings: mice infected iv with C. albicans SLU-1; two doses less than 5 mg/kg; initial experiments (p>0.5)
Experimental: Derivatized peptide-based constructs are tested for activity upon oral administration (oral activity) in a 28-day comparative survival efficacy study in mice systemically infected with Candida albicans. Specifically, male DBA/2 mice (Charles River Laboratories) six weeks of age are dosed with 7.9×10^4 Candida albicans, SLU-1 in 100 μL intravenously via the tail vein in a single dosage on day zero (0). However, other routes of administration, including intraperitoneal (ip) and subcutaneous (sc) routes may be administered. Amphotericin B will provide complete protection at 0.5 mg/kg qod (100% survival). Mortality data will be subjected to Kaplan-Meier survival analysis. All treatment groups may be considered statistically significant vs. saline at p values <0.05.
Treatment begins immediately thereafter with 400 μL oral gavage of either 0.5% dextrose, or derivative compound in 0.5% dextrose at various dosage levels (e.g., 10 mg/kg or 20 mg/kg) according to a prescribed dosing regimen (e.g. every other day for a total of eight times). Amphotericin B (Fungizone®) is administered intravenously at 0.5 mg/kg as a positive control every other day for a total of eight times. Twice-day monitoring (once daily on weekends and holidays) for mortality is performed. The animals treated with antiflngal derivative compound show improvement in mortality compared with the dextrose-treated controls, preferably statistically significant improvement (p-value of […]).

gram-negative bacteria = settings: broad range of gram-negative bacteria; concentrations as low as; cited from earlier work
[2] = system: Staphylococcus aureus (four strains), Staphylococcus epidermidis, Streptococcus faecalis, Bacillus subtilis, Micrococcus lysodeikticus, and Listeria …; settings: 160 μg/ml; pH of either 7.0 or 5.5; cited from earlier work
[3] = system: Candida albicans and Candida parapsilosis; settings: 10^−6 M; pH 7.0 or 5.5; cited from earlier work
[4] = system: human, rabbit and sheep red blood cells and several human tumor cell lines; settings: cited from earlier work

Row | Molecule | Radial Diffusion (pmol to achieve 30 mm^2 zone C. albicans SLU1) (Candida albicans SLU-1) | Broth Microdilution (MIC values in μg/mL C. albicans SLU1) [1] | improvement in mortality compared with dextrose-treated controls (Candida albicans, SLU-1) | concentration exhibiting anti-bacterial activity (gram-negative bacteria) | toxic effect on gram-positive organisms [2] | toxic effect on fungi [3] | toxicity to higher eukaryotic cells [4]
1 | CC[C@@H](C)[C@@H](NC(=O)[C@@H](CC(C)C)NC(=O)[C@@H](Cc1c[nH]c2ccccc12)NC(=O)[C@@H](CCCCN)NC(=O)CCCCCCCCCCN)C(=O)N[C@H](CCC(N)=O)C(=O)N[C@H](CC(C)C)C(=O)N[C@H](Cc1ccccc1)C(=O)N[C@H](Cc1c[nH]cn1)C(=O)N[C@H](CCCCN)C(=O)N[C@H](CCCCN)C(N)=O [XMP.496] (H-[Aun][dK][dW][dL][dI][dQ][dL][dF][dH][dK][dK]-NH2) | 434 pmol | 1 µg/mL | did not exhibit statistically significant improvement |  |  |  | 
2 | CC[C@@H](C)[C@@H](NC(=O)[C@@H](CC(C)C)NC(=O)[C@@H](Cc1c[nH]c2ccccc12)NC(=O)[C@@H](CCCCN)NC(=O)CCCC[C@@H]1SC[C@@H]2NC(=O)N[C@@H]21)C(=O)N[C@H](CCC(N)=O)C(=O)N[C@H](CC(C)C)C(=O)N[C@H](Cc1ccccc1)C(=O)N[C@H](Cc1c[nH]cn1)C(=O)N[C@H](CCCCN)C(=O)N[C@H](CCCCN)C(N)=O [XMP.519] | 170 pmol | 1 µg/mL | did not exhibit statistically significant improvement |  |  |  | 
3 | CC[C@@H](C)[C@@H](NC(=O)[C@@H](CC(C)C)NC(=O)[C@@H](Cc1c[nH]c2ccccc12)NC(=O)[C@@H](CCCCN)NC(=O)c1ccc2c(c1)-c1ccccc1-2)C(=O)N[C@H](CCC(N)=O)C(=O)N[C@H](CC(C)C)C(=O)N[C@H](Cc1ccccc1)C(=O)N[C@H](Cc1c[nH]cn1)C(=O)N[C@H](CCCCN)C(=O)N[C@H](CCCCN)C(N)=O [XMP.534] | >3,371 pmol | 4 µg/mL | did not exhibit statistically significant improvement |  |  |  | 
4 | B1 |  |  |  | 10^−8 to 10^−9 M | no toxic effect | no toxic effect | non-toxic
